Test results published in patent publication US20240148821A1, “PHARMACEUTICAL USE OF CYCLIC PEPTIDE COMPOUND” (CHUGAI SEIYAKU KABUSHIKI KAISHA, priority 2021, published 2024).
Numbered stars: 1 amine (or outer) side, 2 acyl side, 3 side chain; on linkers, the order of the positions; unused ones are H or OH. Bridge positions count the residues as written; N and C are the ends. Square brackets hold non-standard residues; d marks the D form. Peptide text beside a SMILES is read from it. * marks the point of attachment. hPhe(3-Cl-4-CF3) = N[C@@H](CCc1ccc(C(F)(F)F)c(Cl)c1)C(=O)O; hPhe(3-F,4-CF3) = N[C@@H](CCc1ccc(C(F)(F)F)c(F)c1)C(=O)O; hPhe(4-CF3) = N[C@@H](CCc1ccc(C(F)(F)F)cc1)C(=O)O; X105 = C[C@@](Cc1cccc(I)c1)(N[*:1])C(=O)[*:2]; 3Oxa8azabicyclo(3.2.1)octane = C1CC2COCC1N2*; NMePhe(4-Cl) = CN[C@@H](Cc1ccc(Cl)cc1)C(=O)O; NMePhe(4-Me) = CN[C@@H](Cc1ccc(C)cc1)C(=O)O; X109 = O=C([C@H](Cc1cccc(I)c1F)N[*:1])[*:2]; Phe(3-I) = N[C@@H](Cc1cccc(I)c1)C(=O)O; Phe(4-Me) = Cc1ccc(C[C@H](N)C(=O)O)cc1; Pro(4,4-F2) = O=C(O)[C@@H]1CC(F)(F)CN1; Phe(2-F) = N[C@@H](Cc1ccccc1F)C(=O)O; NMeY = CN[C@@H](Cc1ccc(O)cc1)C(=O)O; NMeCha = CN[C@@H](CC1CCCCC1)C(=O)O; NMeCba = CN[C@@H](CC1CCC1)C(=O)O; NMeChg = CN[C@H](C(=O)O)C1CCCCC1; NMeD = CN[C@@H](CC(=O)O)C(=O)O; NMeL = CN[C@@H](CC(C)C)C(=O)O; NMeV = CN[C@H](C(=O)O)C(C)C; d(β3hA) = C[C@@H](N)CC(=O)O; NMeAbu = CC[C@H](NC)C(=O)O; NMeA = CN[C@@H](C)C(=O)O; NMeAib = CNC(C)(C)C(=O)O; Nle = CCCC[C@H](N)C(=O)O; Piperidide = C1CCN(*)CC1; Ac5c = NC1(C(=O)O)CCCC1; Aze = O=C(O)[C@@H]1CCN1; Abu = CC[C@H](N)C(=O)O; Sar = CNCC(=O)O

Tested on: Human pancreatic cancer cell line AsPC-1 (G12D mutation Kras)
Test: AsPC-1 cell growth inhibition (AsPC-1 CGI)
Format: cell-based
Conditions: read-out: AsPC-1 cell growth inhibition, 50% growth inhibitory concentration (IC50 value); 96 hours, CellTiter-Glo, values classified in ranges
Method: Test compounds were serially dilated with dimethyl sulfoxide, and 200 nL was then dispensed to a U-bottom 96-well plate using Labcyte Echo. […] The cell suspension was dispensed to a. plate containing a test compound at 100 μL per well and incubated at 37° C. in a 5% carbon dioxide gas incubator. 96 hours later, 80 μL of CellTiter-Glo (Promega) was added to each well and fluorescence was measured.

Row | Structure (SMILES) | IC50 [nM]
1 | CC[C@@H]1NC(=O)[C@H](CC(C)C)N(C)C(=O)C[C@@H](C(=O)N2CCCCC2)N(C)C(=O)[C@H](C2CCCCC2)N(C)C(=O)C2(CCCC2)NC(=O)[C@@H]2CCCN2C(=O)[C@H](CCc2ccc(C(F)(F)F)c(Cl)c2)NC(=O)CN(C)C(=O)[C@H](CC2CCCCC2)N(C)C(=O)CN(C)C(=O)CN(C)C1=O [Compound 1775] ([NMeL][Abu][Sar][Sar][NMeCha][Sar][hPhe(3-Cl-4-CF3)]P[Ac5c][NMeChg][NMeD]-Piperidide; lactam N-11) | > 500
2 | CC[C@H](C)[C@@H]1NC(=O)[C@H](CC(C)C)N(C)C(=O)C[C@@H](C(=O)N2CCCCC2)N(C)C(=O)[C@H](CC(C)C)NC(=O)C(C)(C)N(C)C(=O)[C@H](Cc2ccc(C)cc2)NC(=O)[C@H](Cc2cccc(I)c2)NC(=O)CN(C)C(=O)[C@H](CC2CCCCC2)N(C)C(=O)CN(C)C(=O)CN(C)C1=O [Compound 166] ([NMeL]I[Sar][Sar][NMeCha][Sar][Phe(3-I)][Phe(4-Me)][NMeAib]L[NMeD]-Piperidide; lactam N-11) | > 500
3 | CC[C@H](C)[C@@H]1NC(=O)[C@H](CC(C)C)N(C)C(=O)C[C@@H](C)NC(=O)[C@H](C(C)C)N(C)C(=O)C2(CCCC2)NC(=O)[C@@H]2CCCN2C(=O)[C@H](CCc2ccc(C(F)(F)F)c(F)c2)NC(=O)CN(C)C(=O)[C@H](CC2CCCCC2)N(C)C(=O)CN(C)C(=O)CN(C)C1=O [Compound 1534] (cyclo([Ac5c][NMeV][d(β3hA)][NMeL]I[Sar][Sar][NMeCha][Sar][hPhe(3-F,4-CF3)]P)) | > 500
4 | CC[C@H](C)[C@@H]1NC(=O)[C@H](CC(C)C)N(C)C(=O)C[C@@H](C(=O)N2CCCCC2)N(C)C(=O)[C@H](C2CCCCC2)N(C)C(=O)C2(CCCC2)NC(=O)[C@@H]2CCCN2C(=O)[C@H](CCc2ccc(C(F)(F)F)c(Cl)c2)NC(=O)[C@H](C)N(C)C(=O)[C@H](CC2CCCCC2)N(C)C(=O)CN(C)C(=O)CN(C)C1=O [Compound 722] ([NMeL]I[Sar][Sar][NMeCha][NMeA][hPhe(3-Cl-4-CF3)]P[Ac5c][NMeChg][NMeD]-Piperidide; lactam N-11) | > 500
5 | CCCC[C@@H]1NC(=O)[C@H](Cc2cccc(I)c2F)NC(=O)CN(C)C(=O)[C@H](Cc2ccc(OC)cc2)N(C)C(=O)[C@@H]2CCN2C(=O)[C@H](C)N(C)C(=O)[C@H]([C@@H](C)CC)NC(=O)[C@H](CC)N(C)C(=O)C[C@@H](C(=O)N2CCCCC2)N(C)C(=O)[C@H](CC(C)C)NC(=O)C(C)(C)N(C)C1=O [Compound 1249] ([NMeAbu]I[NMeA][Aze][NMeY](Me)[Sar][X109][Nle][NMeAib]L[NMeD]-Piperidide; lactam N-11) | > 500
6 | CCCC[C@@H]1NC(=O)[C@](C)(Cc2cccc(I)c2)NC(=O)CN(C)C(=O)[C@H](Cc2ccc(Cl)cc2)N(C)C(=O)CN(C)C(=O)CN(C)C(=O)[C@H]([C@@H](C)CC)NC(=O)[C@H](CC(C)C)N(C)C(=O)C[C@@H](C(=O)N2CCCCC2)N(C)C(=O)[C@H](CC(C)C)NC(=O)C(C)(C)N(C)C1=O [Compound 1202] ([NMeL]I[Sar][Sar][NMePhe(4-Cl)][Sar][X105][Nle][NMeAib]L[NMeD]-Piperidide; lactam N-11) | > 500
7 | CC[C@H](C)[C@@H]1NC(=O)[C@H](CC2CCC2)N(C)C(=O)C[C@@H](C)NC(=O)[C@H](C(C)C)N(C)C(=O)C2(CCCC2)NC(=O)[C@@H]2CCCN2C(=O)[C@H](CCc2ccc(C(F)(F)F)c(Cl)c2)NC(=O)CN(C)C(=O)[C@H](CC2CCCCC2)N(C)C(=O)CN(C)C(=O)CN(C)C1=O [Compound 230] (cyclo([Ac5c][NMeV][d(β3hA)][NMeCba]I[Sar][Sar][NMeCha][Sar][hPhe(3-Cl-4-CF3)]P)) | > 500
8 | CC[C@H](C)[C@@H]1NC(=O)[C@H](CC(C)C)N(C)C(=O)C[C@@H](C(=O)N2C3CCC2COC3)N(C)C(=O)[C@H](C2CCCCC2)N(C)C(=O)C2(CCCC2)NC(=O)[C@@H]2CC(F)(F)CN2C(=O)[C@H](CCc2ccc(C(F)(F)F)c(Cl)c2)NC(=O)CN(C)C(=O)[C@H](CC2CCCCC2)N(C)C(=O)CN(C)C(=O)CN(C)C1=O [Compound 1179] ([NMeL]I[Sar][Sar][NMeCha][Sar][hPhe(3-Cl-4-CF3)][Pro(4,4-F2)][Ac5c][NMeChg][NMeD]-{3Oxa8azabicyclo(3.2.1)octane}; lactam N-11) | ≤ 20
9 | CC[C@H](C)[C@@H]1NC(=O)[C@H](CC(C)C)N(C)C(=O)C[C@@H](C(=O)N2CCCCC2)N(C)C(=O)[C@H](CC(C)C)NC(=O)C(C)(C)N(C)C(=O)[C@H](Cc2ccccc2F)NC(=O)[C@H](Cc2cccc(I)c2)NC(=O)CN(C)C(=O)[C@H](Cc2ccc(C)cc2)N(C)C(=O)CN(C)C(=O)CN(C)C1=O [Compound 556] ([NMeL]I[Sar][Sar][NMePhe(4-Me)][Sar][Phe(3-I)][Phe(2-F)][NMeAib]L[NMeD]-Piperidide; lactam N-11) | > 500
10 | CC[C@H](C)[C@@H]1NC(=O)[C@H](C(C)C)N(C)C(=O)C[C@@H](C)NC(=O)[C@H](CC(C)C)N(C)C(=O)C2(CCCC2)NC(=O)[C@H](CC(C)C)N(C)C(=O)[C@H](CCc2ccc(C(F)(F)F)cc2)NC(=O)CN(C)C(=O)[C@H](Cc2ccc(Cl)cc2)N(C)C(=O)[C@@H]2CCN2C(=O)CN(C)C1=O [Compound 645] (cyclo([Ac5c][NMeL][d(β3hA)][NMeV]I[Sar][Aze][NMePhe(4-Cl)][Sar][hPhe(4-CF3)][NMeL])) | > 500
